We go through 21 compounds from patent US10316017B2, “COT modulators and methods of use thereof” (Gilead Sciences, Inc., priority 2015, dated 2019).

The structures appear in SMILES notation. Where two headings read alike, the source gives them in different places. A value given as a limit tells only on which side of the number the result lay.

Test [1] addresses T1, human Cot catalytic domain (30-397 amino acids) (Homo sapiens, UniProt P41279).
T1 construct: Purified recombinant human Cot catalytic domain (30-397 amino acids) was purchased from Cama Biosciences; purchased Cama Biosciences (so in the source)
The experiment in a line: High Throughput Cot Biochemical Assay (KinEASE TR-FRET). The settings on record: Cot biochemical HTRF (KinEASE TR-FRET) assay; read-out: IC50 HTRF. The essentials: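 TR-FRET readout: Eu-labeled phospho-specific antibody binds XL665-tagged STK3 peptide after phosphorylation by Cot (aa 30-397, 5 nM). Conditions: 400 μM ATP, 1 μM peptide, MOPS pH 7.0 buffer with MgOAc, DTT, BSA, NP-40, glycerol; 0.1% DMSO.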
Background: In TR-FRET formats the signal depends on donor and acceptor labels being close together.

In test [2] the test system is TNFα production in LPS-stimulated human monocytes. In words: Cot Monocyte TNFα Cell Based Assay. The settings on record: Homo sapiens, Monocyte, read-out: EC50 TNF. In outline: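 TR-FRET read-out of total secreted TNFα, normalized as % control (unstimulated = 0%, LPS-stimulated = 100%). Cells (5,000/well) were exposed to compound 1 h at 37 °C, then to 50 pg/ml LPS for a further 4 h.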

Setting [3] is: TNFα in LPS-stimulated human monocytes.

T1 sequence (P41279 30-397): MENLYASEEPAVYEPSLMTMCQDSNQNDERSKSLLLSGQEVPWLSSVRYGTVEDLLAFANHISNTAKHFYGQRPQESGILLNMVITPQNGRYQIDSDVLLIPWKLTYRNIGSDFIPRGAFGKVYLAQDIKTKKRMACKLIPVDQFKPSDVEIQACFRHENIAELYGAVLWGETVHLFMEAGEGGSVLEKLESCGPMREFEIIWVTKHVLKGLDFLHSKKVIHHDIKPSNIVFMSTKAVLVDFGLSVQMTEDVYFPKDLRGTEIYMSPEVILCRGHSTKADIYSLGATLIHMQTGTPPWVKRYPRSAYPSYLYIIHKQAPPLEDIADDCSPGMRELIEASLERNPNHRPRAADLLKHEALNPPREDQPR

As for `CC(C)(C)N1CCC(n2cc([C@@H](Nc3cc(Cl)c4ncc(C#N)c(NC[Si](C)(C)C)c4c3)c3ccccc3)nn2)CC1` [Example 489, (S)-6-(((1-(1-(tert-butyl)piperidin-4-yl)-1H-1,2,3-triazol-4-yl)(phenyl)methyl)amino)-8-chloro-4-(((trimethylsilyl)methyl)amino)quinoline-3-carbonitrile], the IC50 in test [1] was found to be 10 nM. For the same compound, in test [2], the EC50 stood at 184 nM.
Turning to `COc1ccc(Nc2c(C#N)cnc3c(Cl)cc(N[C@@H](c4ccccc4)c4c[nH]nn4)cc23)cn1` [Example 490, (S)-8-chloro-4-((6-methoxypyridin-3-yl)amino)-6-((phenyl (1H-1,2,3-triazol-4-yl)methyl)amino) quinoline-3-carbonitrile], in test [1], the IC50 was 172 nM. Also, the EC50 in test [2] (setting [3]) was determined as 3190 nM.
For `COc1ccc(Nc2c(C#N)cnc3c(Cl)cc(N[C@@H](c4ccccc4)c4cn(C5COC5)nn4)cc23)cn1` [Example 491, (S)-8-chloro-4-((6-methoxypyridin-3-yl)amino)-6-(((1-(oxetan-3-yl)-1H-1,2,3-triazol-4-yl)(phenyl)methyl)amino) quinoline-3-carbonitrile], in test [1], the IC50 worked out at 123 nM. Besides, the concentration for a half-maximal effect (EC50) in test [2] (setting [3]) amounted to 3840 nM.
Consider `COc1ccc(Nc2c(C#N)cnc3c(Cl)cc(N[C@@H](c4ccccc4)c4cn(C5CCN(C(C)(C)C)CC5)nn4)cc23)cn1` [Example 492, (S)-6-(((1-(1-(tert-butyl)piperidin-4-yl)-1H-1,2,3-triazol-4-yl)(phenyl)methyl)amino)-8-chloro-4-((6-methoxypyridin-3-yl)amino)quinoline-3-carbonitrile], for which the IC50 in test [1] turned out to be 65 nM. Further, in test [2] (setting [3]), the EC50 worked out at 966 nM.
Regarding `N#Cc1cnc2c(Cl)cc(N[C@@H](c3ccc(F)cc3)c3cn(CCF)nn3)cc2c1Nc1cnc(F)c(F)c1` [Example 493, (S)-8-chloro-4-((5,6-difluoropyridin-3-yl)amino)-6-(((1-(2-fluoroethyl)-1H-1,2,3-triazol-4-yl)(4-fluorophenyl)methyl)amino) quinoline-3-carbonitrile], the IC50 in test [1] is 18 nM. Also, the EC50 in test [2] (setting [3]) came out at 1220 nM.
For `N#Cc1cnc2c(Cl)cc(N[C@@H](c3ccc(Cl)cc3)c3cn(C4COC4)nn3)cc2c1Nc1cnc(F)c(F)c1` [Example 494, (S)-8-chloro-6-(((4-chlorophenyl)(1-(oxetan-3-yl)-1H-1,2,3-triazol-4-yl)methyl)amino)-4-((5,6-difluoropyridin-3-yl)amino)quinoline-3-carbonitrile] the same measures were 47 nM and 585 nM.
For `N#Cc1cnc2c(Cl)cc(N[C@@H](c3ccc(Cl)cc3)c3c[nH]nn3)cc2c1Nc1cnc(F)c(F)c1` [Example 495, (S)-8-chloro-6-(((4-chlorophenyl)(1H-1,2,3-triazol-4-yl)methyl)amino)-4-((5,6-difluoropyridin-3-yl)amino) quinoline-3-carbonitrile] the same measures were 32 nM and 641 nM.
As for `CC(=O)N(C)c1cccc([C@H](Nc2cc(Cl)c3ncc(C#N)c(Nc4cnc(F)c(F)c4)c3c2)c2c[nH]nn2)c1` [Example 496, (S)-N-(3-(((8-chloro-3-cyano-4-((5,6-difluoropyridin-3-yl)amino)quinolin-6-yl)amino)(1H-1,2,3-triazol-4-yl)methyl)phenyl)-N-methylacetamide], in test [1], the IC50 was 4 nM. For the same compound, in test [2] (setting [3]), the EC50 is 1840 nM.
Turning to `N#Cc1cnc2c(Cl)cc(N[C@@H](c3ccccc3)c3cn([C@@H]4CCN(C5COC5)C[C@H]4O)nn3)cc2c1Nc1ccc(F)c(Cl)c1` [Example 497, 8-chloro-4-((3-chloro-4-fluorophenyl)amino)-6-(((S)-(1-((3R,4R)-3-hydroxy-1-(oxetan-3-yl)piperidin-4-yl)-1H-1,2,3-triazol-yl)(phenyl)methyl)amino)quinoline-3-carbonitrile], the half-inhibitory concentration (IC50) in test [1] turned out to be 26 nM. The EC50 in test [2] (setting [3]) turned out to be 985 nM.
Take `N#Cc1cnc2c(Cl)cc(N[C@@H](c3cccc(-c4ncco4)c3)c3c[nH]nn3)cc2c1Nc1cnc(F)c(F)c1` [Example 498, (S)-8-chloro-4-((5,6-difluoropyridin-3-yl)amino)-6-(((3-(oxazol-2-yl)phenyl)(1H-1,2,3-triazol-4-yl)methyl)amino) quinoline-3-carbonitrile]: the half-inhibitory concentration (IC50) in test [1] is 8 nM. In addition, the EC50 in test [2] (setting [3]) is 520 nM.
The corresponding values for `N#Cc1cnc2c(Cl)cc(N[C@@H](c3cccc(-c4ncco4)c3)c3cn(C4COC4)nn3)cc2c1Nc1cnc(F)c(F)c1` [Example 499, (S)-8-chloro-4-((5,6-difluoropyridin-3-yl)amino)-6-(((3-(oxazol-2-yl)phenyl) (1-(oxetan-3-yl)-1H-1,2,3-triazol-4-yl)methyl)amino)quinoline-3-carbonitrile] are 6 nM and 985 nM.
For the compound `N#Cc1cnc2c(Cl)cc(N[C@H](c3cn(C4COC4)nn3)c3c(F)cc(F)cc3F)cc2c1Nc1cnc(F)c(F)c1` [Example 500, (S)-8-chloro-4-((5,6-difluoropyridin-3-yl)amino)-6-(((1-(oxetan-3-yl)-1H-1,2,3-triazol-4-yl)(2,4,6-trifluorophenyl)methyl)amino)quinoline-3-carbonitrile], the half-inhibitory concentration (IC50) in test [1] worked out at 92 nM. Further, the EC50 in test [2] (setting [3]) stood at 2160 nM.
For `N#Cc1cnc2c(Cl)cc(N[C@H](c3cn(C4COC4)nn3)c3ccccc3C(F)(F)F)cc2c1Nc1cnc(F)c(F)c1` [Example 501, (S)-8-chloro-4-((5,6-difluoropyridin-3-yl)amino)-6-(((1-(oxetan-3-yl)-1H-1,2,3-triazol-4-yl)(2-(trifluoromethyl)phenyl)methyl)amino)quinoline-3-carbonitrile] the same measures were 94 nM and 2140 nM.
For `N#Cc1cnc2c(Cl)cc(N[C@H](c3c[nH]nn3)c3ccccc3C(F)(F)F)cc2c1Nc1cnc(F)c(F)c1` [Example 502, (S)-6-(((1H-1,2,3-triazol-4-yl)(2-(trifluoromethyl)phenyl)methyl)amino)-8-chloro-4-((5,6-difluoropyridin-3-yl)amino)quinoline-3-carbonitrile] the same measures were 160 nM and 1950 nM.
For `N#Cc1cnc2c(Cl)cc(N[C@H](c3c[nH]nn3)c3c(F)cc(F)cc3F)cc2c1Nc1cnc(F)c(F)c1` [Example 503, (S)-6-(((1H-1,2,3-triazol-4-yl)(2,4,6-trifluorophenyl)methyl)amino)-8-chloro-4-((5,6-difluoropyridin-3-yl)amino)quinoline-3-carbonitrile] the same measures were 98 nM and 1690 nM.
Turning to `CC(C)(C)N1CCC(n2cc([C@@H](Nc3cc(Cl)c4ncc(C#N)c(N)c4c3)c3ccccc3)nn2)CC1` [Example 504, (S)-4-amino-6-(((1-(1-(tert-butyl)piperidin-4-yl)-1H-1,2,3-triazol-4-yl)(phenyl)methyl)amino)-8-chloroquinoline-3-carbonitrile], the half-maximal inhibitory concentration (IC50) in test [1] was found to be 1780 nM. Also, the EC50 in test [2] (setting [3]) was 8510 nM.
The corresponding values for `CC(C)(C)N1CCC(n2cc([C@@H](Nc3cc(Cl)c4ncc(C#N)c(Nc5ccc(F)c(C(F)(F)F)c5)c4c3)c3ccccc3)nn2)CC1` [Example 505, (S)-6-(((1-(1-(tert-butyl)piperidin-4-yl)-1H-1,2,3-triazol-4-yl)(phenyl)methyl)amino)-8-chloro-4-((4-fluoro-3-(trifluoromethyl)phenyl)amino)quinoline-3-carbonitrile] are 240 nM and 2620 nM.
Consider `CC(C)(C)N1CCC(n2cc([C@@H](Nc3cc(Cl)c4ncc(C#N)c(N[C@@H]5CCOc6ccccc65)c4c3)c3ccccc3)nn2)CC1` [Example 506, 6-(((S)-(1-(1-(tert-butyl)piperidin-4-yl)-1H-1,2,3-triazol-4-yl)(phenyl)methyl)amino)-8-chloro-4-(((R)-chroman-4-yl)amino)quinoline-3-carbonitrile], for which the concentration for half-maximal inhibition (IC50) in test [1] came out at 1690 nM. Also, the half-maximal effective concentration (EC50) in test [2] (setting [3]) stood at 5290 nM.
The corresponding values for `CC(C)(C)N1CCC(n2cc([C@@H](Nc3cc(Cl)c4ncc(C#N)c(N[C@H]5CCOc6ccccc65)c4c3)c3ccccc3)nn2)CC1` [Example 507, 6-(((S)-(1-(1-(tert-butyl)piperidin-4-yl)-1H-1,2,3-triazol-4-yl)(phenyl)methyl)amino)-8-chloro-4-(((S)-chroman-4-yl)amino)quinoline-3-carbonitrile] are 741 nM and 8510 nM.
`CCC(Nc1c(C#N)cnc2c(Cl)cc(N[C@@H](c3ccccc3)c3cn(C4CCN(C(C)(C)C)CC4)nn3)cc12)C1CCOCC1` (stereo partly drawn) [Example 508, 6-(((S)-(1-(1-(tert-butyl)piperidin-4-yl)-1H-1,2,3-triazol-4-yl)(phenyl)methyl)amino)-8-chloro-4-((1-(tetrahydro-2H-pyran-4-yl)propyl)amino)quinoline-3-carbonitrile]: in test [1], the IC50 is 5350 nM. Also, in test [2] (setting [3]), the concentration giving a half-maximal response (EC50) is above 10000 nM.
`CC1CC(Nc2c(C#N)cnc3c(Cl)cc(N[C@@H](c4ccccc4)c4cn(C5CCN(C(C)(C)C)CC5)nn4)cc23)CC(C)O1` (stereo partly drawn) [Example 509, 6-(((S)-(1-(1-(tert-butyl)piperidin-4-yl)-1H-1,2,3-triazol-4-yl)(phenyl)methyl)amino)-8-chloro-4-((2,6-dimethyltetrahydro-2H-pyran-4-yl)amino) quinoline-3-carbonitrile]: the IC50 in test [1] came to 206 nM. In test [2] (setting [3]), the EC50 turned out to be 2990 nM.

Broadly, the IC50 is the concentration needed to halve the response being measured. What is called EC50 is the concentration giving half of the maximal effect.
